Measurements: ChEMBL document CHEMBL3507680, “University of Dundee, Gates Library screen for HepG2 cell viability”

Experiment: Human HepG2 cell viability assay in 384 well format
Format: toxicity, cell-based
Parameters: dose 125 nL, time 70.5 hour; concentration not given beside the values
Details: HepG2 cells, read-out: Inhibition

Row | SMILES | cytotoxicity at 70.5 h
1 | O=C(NC1CCCN(c2ncccn2)C1)c1ccoc1 (stereo not drawn) | -1.17%
2 | Cc1ccc(CN2CCC3(CC(C(=O)NC4CCC4)=NO3)C2)o1 (stereo not drawn) | -14.5%
3 | O=C(NCCN1CCOCC1)C1=NOC2(CCN(Cc3nccs3)C2)C1 (stereo not drawn) | -17.4%
4 | O=C(NC1CCC1)C1=NOC2(CCN(Cc3ccccc3)C2)C1 (stereo not drawn) | -10.6%
5 | COCC(=O)N1CC[C@@H](N2CCOCC2)[C@@H]1Cc1cccnc1 | -12.2%
6 | Cc1noc(C)c1C(=O)N1C[C@@H]2C[C@@H](c3ccncn3)O[C@@H]2C1 | -3.05%
7 | Cc1oncc1C(=O)N1CC[C@H]2C[C@H](c3ccncn3)O[C@@H]2C1 | 7.58%
8 | O=C(c1c2c(N3CCCC3)ncnc2n2ccccc12)N1CCCC1 | -11%
9 | CC(=O)N1CCC2(CC1)CCN(C(=O)c1cccc(C(F)(F)F)c1)C2 | -13.6%
10 | CC(=O)N1CCC2(CCN(C(=O)c3ccc(Cl)c(C(F)(F)F)c3)C2)C1 (stereo not drawn) | -11%
11 | Cc1ncoc1C(=O)N1CCn2c(COc3cccnc3)cnc2C1C (stereo not drawn) | 17.8%
12 | O=C(NCC1Cn2nnc(-c3ccsc3)c2CO1)c1ccc[nH]1 (stereo not drawn) | 1.74%
13 | O=C(NCC1Cn2nnc(-c3ccncc3)c2CO1)c1ccc[nH]1 (stereo not drawn) | -5.04%
14 | N#CCCNC(=O)c1ccn(-c2ccc3ccccn23)n1 | -7.72%
15 | Cc1nc(CN2CCO[C@@H]3CN(C(=O)CN(C)C)CC[C@@H]3C2)cs1 | -13.1%
16 | CN(Cc1ccco1)[C@@H]1CN(Cc2ccoc2)C[C@@H]2CCCO[C@@H]21 | -7.61%
17 | O=C(NCC1Cn2nnc(-c3ccccc3)c2CO1)c1ccc[nH]1 (stereo not drawn) | 1.41%
18 | CC1c2ncc(COCC3CC3)n2CCN1C(=O)c1ccnnc1 (stereo not drawn) | -5.45%
19 | Cc1nnn2c1COC(CNC(=O)c1cccn1C)C2 (stereo not drawn) | -14.1%
20 | CC1c2ncc(COCC3CCOCC3)n2CCN1C(=O)c1ccco1 (stereo not drawn) | -10.5%
21 | COCC1CN(C(=O)Cc2ccccn2)Cc2cn(CC3CC3)nc21 (stereo not drawn) | -14.6%
22 | CCn1cc2c(n1)C(COC)CN(C(=O)CCOc1ccccc1)C2 (stereo not drawn) | -12.3%
23 | CN(C)S(=O)(=O)N1C[C@H]2C[C@H](C(=O)NCc3ccccc3)[C@@H](C1)O2 | -12.2%
24 | N#Cc1cccc(N2CC3(CCN(C(=O)c4ccnnc4)C3)CC2=O)c1 (stereo not drawn) | -10.5%
25 | CN(C)CCO[C@H]1CN(C(=O)c2cscn2)[C@@H]2COC[C@H]12 | -14.3%

Row | SMILES | cytotoxicity at 70.5 h
26 | O=C(c1ccnnc1)N1C[C@H](OCC2CC2)[C@H]2COC[C@H]21 | -13.5%
27 | CN(C)CCO[C@H]1CN(C(=O)c2ccc[nH]2)[C@@H]2COC[C@H]12 | -11.1%
28 | CN(C)C(=O)N1CCC2(CC(=O)N(c3cccc(C#N)c3)C2)C1 (stereo not drawn) | -5.09%
29 | CCO[C@H]1CN(C(=O)c2ccnnc2)[C@@H]2COC[C@H]12 | -10.7%
30 | O=C(c1ncccn1)N1C[C@@H]2CN(Cc3cccnc3)CCO[C@@H]2C1 | -5.35%
31 | CC(C)NC(=O)[C@H]1C[C@@H]2CN(C(=O)NCc3ccccc3)C[C@H]1O2 | -7.91%
32 | CCOCC1CC2(CCN(C(=O)c3cscn3)CC2)CO1 (stereo not drawn) | -9.28%
33 | CCn1cc2c(n1)C(COC)CN(C(=O)c1ccccn1)C2 (stereo not drawn) | -9.71%
34 | O=C(c1ccnnc1)N1CCc2onc(Cn3cccn3)c2C1 | -3.08%
35 | O=C(c1ccco1)N1CCc2onc(Cn3cccn3)c2C1 | -7.44%
36 | CN(C)CCOCC1CN(CCN(C)C)Cc2ccnn2C1 (stereo not drawn) | -10.7%
37 | COc1ccc(C(=O)N2C[C@@H](O)[C@H](NCc3ncccc3C)C2)cc1 | -8.03%
38 | CNCCCNC1CCN(c2ccc(-n3ccnc3)cc2)CC1 | -7.26%
39 | CC(C)Cc1cc(C(=O)NCC2CCCN(Cc3ccco3)C2)on1 (stereo not drawn) | -10.7%
40 | Cc1nn(C)c2nc(-c3ccccn3)nc(NCCC3CCCN3C)c12 (stereo not drawn) | 1.37%
41 | Cc1ncsc1CN1CC2(CCCC2)CC1=O | 0.928%
42 | COc1ccc2nc(O)c(CN(C)Cc3ncc[nH]3)cc2c1 | 1.48%
43 | O=C(NCc1cccc(Cl)c1)C1=NOC2(CCNC2)C1 (stereo not drawn) | -6.34%
44 | O=C(c1cccs1)N1CC[C@@H](N2CCOCC2)[C@@H]1Cc1ccccc1 | -15.7%
45 | O=C1COC2(COCCN(Cc3ccsc3)C2)CN1c1ccoc1 (stereo not drawn) | 32.5%
46 | O=C1CC2(CCN(Cc3ccco3)C2)CN1c1ccc2c(c1)OCO2 (stereo not drawn) | 11.6%
47 | CN(C)S(=O)(=O)N1CC[C@]2(C[C@@H](Oc3ncccc3F)CO2)C1 | 13.4%
48 | O=C(NCc1ccco1)[C@H]1CC[C@@H]2[C@@H](CCN2c2ncccn2)O1 | 12.4%
49 | Cc1ccc(N2CC[C@H]3O[C@H](C(=O)NCc4ccco4)CC[C@H]32)nn1 | -18.3%
50 | CN(C)S(=O)(=O)N1C[C@@H](OCc2cccnc2)[C@H]2OCCC[C@H]21 | 12.6%

Row | SMILES | cytotoxicity at 70.5 h
51 | CCCS(=O)(=O)N1C[C@@H](OCc2ccncc2)[C@H]2OCCC[C@H]21 | -7.43%
52 | COCCN1CCc2c(cnc(-c3ccccc3)c2C(=O)O)C1 | -9.19%
53 | Cn1nccc1C(=O)N1CCC2(CC1)COC(COc1ccccn1)C2 (stereo not drawn) | -11.2%
54 | CN(C)CCNC(=O)[C@H]1C[C@@H]2CN(C(=O)NCc3ccccc3)C[C@H]1O2 | -14.9%
55 | CC(C)N1CCc2nnc(COc3cncnc3)n2CC1 | -9.44%
56 | CNC(=O)N1C[C@H]2C[C@H](C(=O)NCc3cccnc3)[C@@H](C1)O2 | -4.91%
57 | O=C(c1ccco1)N1C[C@H]2CCCN(CC3CC3)[C@H]2C1 | -16.9%
58 | Cc1cccc(CN2CCC[C@@H]3CN(C(=O)c4ccco4)C[C@@H]32)n1 | -7.63%
59 | Cn1cccc1C(=O)N1CCC2(CCCN2Cc2ccccc2)CC1 | -9.97%
60 | O=C(c1ccco1)N1C[C@H]2CCCN(Cc3ccoc3)[C@H]2C1 | -9.66%
61 | Cc1ccc(CN2C[C@@H]3[C@@H](C2)OCC(=O)N3Cc2ccncc2)s1 | 10.5%
62 | O=C1CO[C@@H]2CN(Cc3nccs3)C[C@H]2N1Cc1ccncc1 | -11.4%
63 | CN(Cc1ccco1)[C@@H]1CN(Cc2cccs2)C[C@@H]2CCCO[C@@H]21 | -6.25%
64 | CCOCC1CN(c2ccncn2)Cc2cnn(CC3CC3)c21 (stereo not drawn) | -7.56%
65 | c1ccc(OCc2nnc3n2CCN(CC2CC2)C3)nc1 | -13.3%
66 | Cc1nc(CN2CCO[C@@H]3CN(Cc4nccs4)C[C@@H]3C2)cs1 | -1.91%
67 | Cc1ccc(CN2C[C@@H]3CCCO[C@@H]3[C@H](N(C)Cc3ccco3)C2)o1 | -9.18%
68 | O=C(O)c1c(-c2cccnc2)ncc2c1CCN(Cc1cccnc1)C2 | -5.73%
69 | Cc1cnc(C(=O)N2C[C@H]3CN(Cc4cccnc4)C[C@H]3C2)cn1 | 6.07%
70 | c1cncc(CN2CCc3c(nnn3CC3CC3)C2COCC2CC2)c1 (stereo not drawn) | -14.9%
71 | O=C(NC1CC1)[C@H]1C[C@H]2OCC[C@H]2N(Cc2cccnc2)C1 | -7.68%
72 | CN(Cc1ccncc1)C1COC2(CCN(Cc3ccsc3)CC2)C1 (stereo not drawn) | -15.1%
73 | CN(Cc1ccco1)[C@@H]1CN(Cc2ccncc2)C[C@@H]2CCCO[C@@H]21 | -13.9%
